Data taken from paper PMC10387993, “New pyrimidine-N-β-D-glucosides: synthesis, biological evaluation, and molecular docking investigations” (Turkish Journal of Chemistry, 2023).
≈ marks a conversion by molar mass, not a printed value.

Columns and labels:
Assay type in all cases: cell-based
A549 = experiment: cells; conditions: Homo sapiens; for LC50 (concentration causing 50% net cell loss): A549, read-out: LC50; for GI50 / IC50 / IC (total growth inhibition): A549, MTT; for IC50: read-out: IC50; for IC (total growth inhibition): read-out: TGI
Description: (§1) The cell lines were cultured in a cell medium (Dulbecco’s modified eagle’s or RPMI 1640) enriched with 10% (v/v) fetal bovine serum and 2% (v/v) Penicillin-Streptomycin (10,000 U/mL). First, old medium was removed out of the flask when the cells reached approximately 80% confluence. Next, cells were taken from the flasks surface using trypsin-EDTA solution and then subjected to centrifugation. Following, the cell pellet was suspended with fresh media and was inoculated into wells.
(§2) A cell suspension containing approximately 1 × 10^4 cells in 100 μL was seeded into the wells of 96-well culture plates. […]. The final volume of the wells was set to 200 μL by medium. Cell proliferation assay was evaluated by MTT (yellow tetrazolium MTT (3-(4,5-dimethylthiazolyl-2)-2,5-diphenyltetrazolium bromide) methods. Briefly, an MTT stock solution (5 mg of MTT/mL of distilled water) was filtered and kept at −20 °C until use. The cells were exposed to an MTT reagent (consisting of one parts of MTT stock solutions and nine parts of fresh RPMI 1640 without phenol red) for 4 h to form MTT formazan dye followed by the dye dissolved in DMSO with Sorenson’s buffer for 30 min at room temperature and then the plate was measured at 560 nm, with 690 nm as a reference interval, using a microplate reader. Each experiment was repeated at least three times for each cell line.
(§3) IC50 value is a concentration that inhibits half of the cells in vitro. The half maximal inhibitory concentration (IC50) of the test and control compounds was calculated using XLfit5 or excel spreadsheet and represent in μM at 95% confidence intervals. The proliferation assay results were expressed as the percent inhibition according to the following formula: % Inhibition = [1 - (Absorbance of Treatments /Absorbance of DMSO) × 100]. Three dose response parameters (GI50, TGI, LC50) were calculated according to the following formulas using the absorbance measurements of time zero (Tz), control growth (C), and test growth in the presence of drug (Ti). Growth inhibition of 50% (GI50) was calculated from [(Ti-Tz)/(C-Tz)] × 100 = 50, which is the drug concentration resulting in a 50% reduction in the net growth increase in control cells during the drug incubation. The drug concentration resulting in total growth inhibition (TGI) was calculated from Ti = Tz. The LC50 indicating a net loss of cells following treatment was calculated from [(Ti-Tz)/Tz] × 100 = −50.

C6 (Rat brain glioma) = experiment: cells; conditions: Rattus norvegicus; for LC50 (concentration giving 50% net cell loss relative to time zero): read-out: LC50; for GI50 / IC50 / IC (total growth inhibition): C6, MTT; for IC50: read-out: IC50; for IC (total growth inhibition): read-out: TGI
Description: as §1, §2, §3

HT29 = experiment: cells; conditions: Homo sapiens; for LC50 (concentration giving 50% net cell loss relative to time zero): HT-29, read-out: LC50; for GI50 / IC50 / IC (total growth inhibition): HT-29, HT29, MTT; for IC50: read-out: IC50; for IC (total growth inhibition): read-out: TGI
Description: as §1, §2, §3

HeLa = experiment: cells; conditions: Homo sapiens; for GI50 / IC50 / IC (total growth inhibition): MTT; for IC50: read-out: IC50; for IC (total growth inhibition): read-out: TGI; for LC50 (concentration causing 50% net cell loss): read-out: LC50
Description: as §1, §2, §3

Hep3B = experiment: cells; conditions: Homo sapiens; for GI50 / IC50 / IC (total growth inhibition): MTT; for IC50: read-out: IC50; for IC (total growth inhibition): read-out: TGI; for LC50 (concentration causing 50% net cell loss relative to time zero): read-out: LC50
Description: as §1, §2, §3

MCF7 = experiment: cells; conditions: Homo sapiens; for LC50 (concentration causing 50% net cell loss relative to time zero): MCF7, read-out: LC50; for GI50 / IC50 / IC (total growth inhibition): MCF7, MTT; for IC50: read-out: IC50; for IC (total growth inhibition): read-out: TGI
Description: as §1, §2, §3

in vitro = conditions: human, LC50
Description: as §1, §2, §3

normal FL cells = experiment: cells; conditions: FL normal cells, MTT; for IC50: read-out: IC50; for IC (total growth inhibition): read-out: TGI
Description: as §1, §2, §3

[1] = LDH cytotoxic activity assay, C6; conditions: rat, C6 glioma cells; for cytotoxicity at 24 h, 25 μg/mL: C6, 25 μg/mL; for cytotoxicity at 24 h, 50 μg/mL: C6, 50 μg/mL; for cytotoxicity at 24 h, 75 μg/mL: C6, 75 μg/mL; for cytotoxicity at 24 h, 100 μg/mL: C6, 100 μg/mL
Description: as §1
(§4) Approximately 5 × 10^3 cells in 100 μL were placed into 96-well plates as triplicates and treated with 25, 50, 75, and 100 μg/mL concentrations of test compounds at 37 °C with 5% CO2 for 24 h. LDH activity was obtained by determining absorbance at 492–630 nm using a microplate reader.

[2] = LDH cytotoxic activity assay, HeLa; conditions: human, HeLa cells
Description: as §1, §4

[3] = LDH cytotoxic activity assay, HT29; conditions: human, HT29 cells; for cytotoxicity at 24 h, 25 μg/mL: HT29, 25 μg/mL; for cytotoxicity at 24 h, 50 μg/mL: HT29, 50 μg/mL; for cytotoxicity at 24 h, 75 μg/mL: HT29, 75 μg/mL; for cytotoxicity at 24 h, 100 μg/mL: HT29, 100 μg/mL
Description: as §1, §4

E. coli ATCC 25922 = experiment: Microdilution MIC assay; conditions: Escherichia coli, ATCC25922; E. coli ATCC 25922, 24 h at 35 °C
Description: (§5) MIC values of the compounds against bacterial strains were determined on the basis of a microwell dilution method. […] […]. Growth of microorganisms was determined visually after incubation for 24 h at 35 °C. The lowest concentration at which there was no visible growth (turbidity) was taken as the MIC.

E. coli ESBL ATCC 35218 = experiment: Microdilution MIC assay; conditions: Escherichia coli, ATCC35218; E. coli ESBL ATCC 35218, 24 h at 35 °C
Description: as §5

[4] = test system: E. faecalis VRE ATCC 19433; experiment: Microdilution MIC assay; conditions: Enterococcus faecalis; E. faecalis VRE ATCC 19433, 24 h at 35 °C
Description: as §5

S. aureus ATCC 25923 = experiment: Microdilution MIC assay; conditions: Staphylococcus aureus, ATCC25923, 24 h, S. aureus ATCC 25923, 24 h at 35 °C; read-out: MIC
Description: as §5

[5] = test system: S. aureus MRSA ATCC 46300; experiment: Microdilution MIC assay; conditions: Staphylococcus aureus; S. aureus MRSA ATCC 46300, 24 h at 35 °C; read-out: MIC
Description: as §5

S. gordonii NCTC 7870 = experiment: Microdilution MIC assay; conditions: Streptococcus gordonii, NCTC7870; S. gordonii NCTC 7870, 24 h at 35 °C
Description: as §5

SMILES: Cc1cccc(-c2cc(-c3ccccn3)nc(N[C@@H]3O[C@H](CO)[C@@H](O)[C@H](O)[C@H]3O)n2)c1 [Compound 4, N-[4-(3-methylphenyl)-6-pyridin-2-ylpyrimidin-2-yl]-β-D-glucopyranosylamine]
- LC50 (concentration causing 50% net cell loss) (A549): > 500 µg/mL
- GI50 (A549): 19.4 µg/mL (≈ 45.8 µM)
- IC50 (A549): > 500 µg/mL
- IC (total growth inhibition) (A549): > 500 µg/mL
- LC50 (concentration giving 50% net cell loss relative to time zero) (C6 (Rat brain glioma)): 77.4 µg/mL (≈ 182 µM)
- GI50 (C6 (Rat brain glioma)): 8.13 µg/mL (≈ 19.2 µM)
- IC50 (C6 (Rat brain glioma)): 27.8 µg/mL (≈ 65.4 µM)
- IC (total growth inhibition) (C6 (Rat brain glioma)): 20.5 µg/mL
- LC50 (concentration giving 50% net cell loss relative to time zero) (HT29): > 500 µg/mL
- GI50 (HT29): 4.63 µg/mL (≈ 10.9 µM)
- IC50 (HT29): 26.7 µg/mL (≈ 62.9 µM)
- IC (total growth inhibition) (HT29): 31.9 µg/mL
- GI50 (HeLa): 21.9 µg/mL (≈ 51.6 µM)
- IC50 (HeLa): 52.2 µg/mL (≈ 123 µM)
- IC (total growth inhibition) (HeLa): 46 µg/mL
- LC50 (concentration causing 50% net cell loss) (HeLa): 116 µg/mL (≈ 272 µM)
- GI50 (Hep3B): 4.4 µg/mL (≈ 10.4 µM)
- IC50 (Hep3B): 65.5 µg/mL (≈ 154 µM)
- IC (total growth inhibition) (Hep3B): 67.8 µg/mL
- LC50 (concentration causing 50% net cell loss relative to time zero) (Hep3B): > 500 µg/mL
- LC50 (concentration causing 50% net cell loss relative to time zero) (MCF7): > 500 µg/mL
- GI50 (MCF7): 3.44 µg/mL (≈ 8.1 µM)
- IC50 (MCF7): > 500 µg/mL
- IC (total growth inhibition) (MCF7): > 500 µg/mL
- LC50 (concentration causing 50% net cell loss) (in vitro): > 500 µg/mL
- GI50 (normal FL cells): 6.77 µg/mL (≈ 15.9 µM)
- IC50 (normal FL cells): 78.1 µg/mL (≈ 184 µM)
- IC (total growth inhibition) (normal FL cells): 79.8 µg/mL
- cytotoxicity at 24 h, 25 μg/mL [1]: 22.1%
- cytotoxicity at 24 h, 50 μg/mL [1]: 49.3%
- cytotoxicity at 24 h, 75 μg/mL [1]: 68.9%
- cytotoxicity at 24 h, 100 μg/mL [1]: 89.2%
- cytotoxicity at 24 h, 25 μg/mL [2]: 26.9%
- cytotoxicity at 24 h, 50 μg/mL [2]: 64.3%
- cytotoxicity at 24 h, 75 μg/mL [2]: 77.1%
- cytotoxicity at 24 h, 100 μg/mL [2]: 97.2%
- cytotoxicity at 24 h, 25 μg/mL [3]: 28.2%
- cytotoxicity at 24 h, 50 μg/mL [3]: 35.7%
- cytotoxicity at 24 h, 75 μg/mL [3]: 62.6%
- cytotoxicity at 24 h, 100 μg/mL [3]: 74.9%
- MIC (E. coli ATCC 25922): > 1000 µg/mL
- MIC (E. coli ESBL ATCC 35218): > 1000 µg/mL
- MIC [4]: > 1000 µg/mL
- MIC (S. aureus ATCC 25923): 250 µg/mL (≈ 589 µM)
- MIC [5]: 500 µg/mL (≈ 1180 µM)
- MIC (S. gordonii NCTC 7870): 250 µg/mL (≈ 589 µM)

SMILES: Cc1cccc(-c2cc(-c3ccncc3)nc(N[C@@H]3O[C@H](CO)[C@@H](O)[C@H](O)[C@H]3O)n2)c1 [Compound 6, N-[4-(3-methylphenyl)-6-pyridin-4-ylpyrimidin-2-yl]-β-D-glucopyranosylamine]
- LC50 (concentration causing 50% net cell loss) (A549): > 500 µg/mL
- GI50 (A549): 192 µg/mL (≈ 453 µM)
- IC50 (A549): > 500 µg/mL
- IC (total growth inhibition) (A549): > 500 µg/mL
- LC50 (concentration giving 50% net cell loss relative to time zero) (C6 (Rat brain glioma)): > 500 µg/mL
- GI50 (C6 (Rat brain glioma)): > 500 µg/mL
- IC50 (C6 (Rat brain glioma)): > 500 µg/mL
- IC (total growth inhibition) (C6 (Rat brain glioma)): > 500 µg/mL
- LC50 (concentration giving 50% net cell loss relative to time zero) (HT29): > 500 µg/mL
- GI50 (HT29): 4.29 µg/mL (≈ 10.1 µM)
- IC50 (HT29): > 500 µg/mL
- IC (total growth inhibition) (HT29): > 500 µg/mL
- GI50 (HeLa): > 500 µg/mL
- IC50 (HeLa): > 500 µg/mL
- IC (total growth inhibition) (HeLa): > 500 µg/mL
- LC50 (concentration causing 50% net cell loss) (HeLa): > 500 µg/mL
- GI50 (Hep3B): 4.07 µg/mL (≈ 9.59 µM)
- IC50 (Hep3B): > 500 µg/mL
- IC (total growth inhibition) (Hep3B): > 500 µg/mL
- LC50 (concentration causing 50% net cell loss relative to time zero) (Hep3B): > 500 µg/mL
- LC50 (concentration causing 50% net cell loss relative to time zero) (MCF7): > 500 µg/mL
- GI50 (MCF7): 2.29 µg/mL (≈ 5.4 µM)
- IC50 (MCF7): > 500 µg/mL
- IC (total growth inhibition) (MCF7): > 500 µg/mL
- LC50 (concentration causing 50% net cell loss) (in vitro): > 500 µg/mL
- GI50 (normal FL cells): 8.04 µg/mL (≈ 18.9 µM)
- IC50 (normal FL cells): > 500 µg/mL
- IC (total growth inhibition) (normal FL cells): > 500 µg/mL
- cytotoxicity at 24 h, 25 μg/mL [1]: 27.9%
- cytotoxicity at 24 h, 50 μg/mL [1]: 38.2%
- cytotoxicity at 24 h, 75 μg/mL [1]: 63.1%
- cytotoxicity at 24 h, 100 μg/mL [1]: 84.9%
- cytotoxicity at 24 h, 25 μg/mL [2]: 14.3%
- cytotoxicity at 24 h, 50 μg/mL [2]: 29.2%
- cytotoxicity at 24 h, 75 μg/mL [2]: 44.5%
- cytotoxicity at 24 h, 100 μg/mL [2]: 47.8%
- cytotoxicity at 24 h, 25 μg/mL [3]: 24.8%
- cytotoxicity at 24 h, 50 μg/mL [3]: 34.5%
- cytotoxicity at 24 h, 75 μg/mL [3]: 68.9%
- cytotoxicity at 24 h, 100 μg/mL [3]: 85.6%
- MIC (E. coli ATCC 25922): > 1000 µg/mL
- MIC (E. coli ESBL ATCC 35218): > 1000 µg/mL
- MIC [4]: 1000 µg/mL (≈ 2360 µM)
- MIC (S. aureus ATCC 25923): 500 µg/mL (≈ 1180 µM)
- MIC [5]: 250 µg/mL (≈ 589 µM)
- MIC (S. gordonii NCTC 7870): 250 µg/mL (≈ 589 µM)
